Assays:
CUMS mice [1] = test: Home cage food consumption after NSFT; type: in vivo, mouse; details: all tested dosages, in comparison with the control group
Method: Figure 6 Animal behavioral tests. (A) Schematic illustration of animal behavioral test timeline. Mice were exposed to CUMS for 3 weeks, as described in Section 4. […] For the CUMS group, saline was given instead of drugs. NSFT was performed after 16–18 h food deprivation, followed by FST and TST. (B) NSFT. The latency time to food in NSFT was counted. (C) Home cage food consumption. Food consumed by individual mice in the home cage (g) within a 20 min period was measured after NSFT. (D) FST. The immobility time during a 2 to 6 min period in FST was measured. (E) TST. The immobility time during 2 to 6 min was counted. n = 8–10 mice/group. Bars represent the mean ± SEM. * p < 0.05 compared with the control or CUMS group, respectively, by one-way ANOVA followed by post hoc tests. ns, not significant.
NSFT was performed after 16 h food deprivation, as described previously. The mouse was placed in an open field (24 × 40 × 14 cm), where a new chow was put in the center, and the latency time to bite food was counted over 10 min. Home cage feeding within a 20 min period was measured after the test. FST was carried out according to a protocol described previously. The mouse was placed into a beaker (Bomex, Beijing, China) with a height of 18 cm filled with water (22 ± 1 °C) for 6 min. The immobile time was measured during minutes 2–6. […] The immobile time during minutes 2–6 was measured.

CUMS mice [2] = test: Forced swim test (FST) in CUMS mice; type: in vivo, mouse; details: 10 mg/kg, i.p., 2 weeks
Method: (§1) C57BL/6 adult (6–8 weeks, body weight, 18–22 g) male mice were maintained and handled in a standard condition at the Experimental Animal Center of Southern Medical University (Guangzhou, China). Animal use was approved by the Animal Use and Care Committee of Southern Medical University (approved code: SMUL2021177, approved date: 12 December 2021). The CUMS procedure was carried out according to a protocol described previously. Except for those in the control group, mice were randomly exposed to two mild unpredictable stressors per day for 3 weeks. The stressors included water deprivation, restraint, tilted cage, wet/no bedding, rotation, peppermint, noise, and inverted light off/on. Mice in the control group were group housed without any stressors throughout the procedure. […] NSFT was performed after 16 h food deprivation, as described previously. The mouse was placed in an open field (24 × 40 × 14 cm), where a new chow was put in the center, and the latency time to bite food was counted over 10 min. Home cage feeding within a 20 min period was measured after the test. FST was carried out according to a protocol described previously. The mouse was placed into a beaker (Bomex, Beijing, China) with a height of 18 cm filled with water (22 ± 1 °C) for 6 min. The immobile time was measured during minutes 2–6. TST was performed according to a previous description. The mouse was suspended from a hook that hung from a suspension bar by placing a piece of adhesive tape on its tail about 1 cm away from the tip. The immobile time during minutes 2–6 was measured.

[3] = Daily body weight during drug administration; details: all tested dosages, 14-day administration, in comparison with the control group
CUMS mice [4] = test: Tail suspension test (TST) in CUMS mice; type: in vivo, mouse; details: 10 mg/kg, i.p., 2 weeks
Method: as §1

CUMS mice [5] = test: Novelty suppressed feeding test (NSFT) in CUMS mice; type: in vivo, mouse; details: 10 mg/kg, i.p., 2 weeks
Method: as §1

[6] = system: BDNF, PSD-95, GluA1, and vGluT1; test: Immunoblot of synaptic proteins in hippocampus of CUMS mice; type: in vivo, mouse; details: same dosage as fluoxetine (10 mg/kg i.p.)
From the text: (§2) Figure 8 SYR effects on the expression of c-Fos and synaptic proteins in the hippocampus. (A) Representative immunohistochemical images of c-Fos expression in the hippocampus with the indicated treatments. (B) Quantitative analysis for hippocampal c-Fos expression with various treatments. Protein expression level is expressed as a percentage of c-Fos fluorescence measured in the control group. Bars represent the mean ± SEM (n = 4). ** p < 0.01 compared with the control or CUMS group by one-way ANOVA followed by post hoc tests. (C) Representative immunoblots of the synaptic proteins BDNF, PSD-95, GluA1, and vGluT1 with various treatments. (D–G) Quantification of the expression of synaptic proteins BDNF (D), PSD-95 (E), GluA1 (F), and vGluT1 (G). The expression level is expressed as a percentage of the integrated density obtained from the control group. Bars represent the mean ± SEM (n = 4). * p < 0.05, ** p < 0.01 by one-way ANOVA followed by post hoc tests.
Synaptic proteins were extracted from mPFC or hippocampus tissues using RIPA lysis buffer, respectively. Expression of the indicated proteins under various treatments was then analyzed by immunoblotting, as previously reported. […] Quantification of immunoreactive protein bands was performed using Image J v1.53u, and GAPDH was used as an internal reference to normalize expression levels of those proteins, respectively.

c-Fos [7] = test: c-Fos immunohistochemistry in hippocampus of CUMS mice; type: in vivo, mouse; details: same dosage as fluoxetine (10 mg/kg i.p.)
From the text: as §2
Mouse mPFC and hippocampal slices were prepared as previously described. Briefly, mice were deeply anesthetized with 4% pentobarbital sodium (Sigma-Aldrich, Saint Louis, MI, USA), and perfused transcardially with PBS, followed by 4% phosphate-buffered paraformaldehyde. […]

CUMS mice [8] = details: all tested dosages, i.p.
c-Fos [9] = test: c-Fos immunohistochemistry in mPFC of CUMS mice; type: in vivo, mouse; details: 10 mg/kg i.p.
Method: Figure 7 SYR effects on the expression of c-Fos and synaptic proteins in mPFC. (A) Representative immunohistochemical images of c-Fos expression in mPFC under the indicated treatments. Immunohistochemistry of c-Fos was performed with mPFC slices as described in Section 4. The slices were re-probed with anti-DAPI antibody. Immunofluorescence images for c-Fos (green) and DAPI (blue) were acquired by confocal microscopy. (B) Quantitative analysis for c-Fos expression in mPFC with various treatments. Protein expression is expressed as a percentage of c-Fos fluorescence measured in the control group. Bars represent the mean ± SEM (n = 4). * p < 0.05, ** p < 0.01 compared with the control or CUMS group by one-way ANOVA followed by post hoc tests, respectively. (C) Representative immunoblots of the synaptic proteins BDNF, PSD-95, GluA1, and vGluT1 with various treatments. (D–G) Quantification of the expression of the synaptic proteins BDNF (D), PSD-95 (E), GluA1 (F), and vGluT1 (G). The expression level is expressed as a percentage of the integrated density obtained from the control group. Bars represent the mean ± SEM (n = 4). * p < 0.05, ** p < 0.01 by one-way ANOVA followed by post hoc tests.
Mouse mPFC and hippocampal slices were prepared as previously described. […]

[10] = set-up: method as in PMID 21869687, PMID 25500685; details: clinically observed; cited from earlier work
5-HT1A receptor = system: 5-HT1A receptor; set-up: method as in PMID 27508501; details: higher potency than its inhibition of SERT activity; cited from earlier work

Structure (SMILES)	home cage food consumption (CUMS mice [1])	CUMS-induced increase in immobility in FST (CUMS mice [2])	daily body weight changes [3]	CUMS-induced increase in immobility in TST (CUMS mice [4])	CUMS-induced increase in latency to food in NSFT (CUMS mice [5])	CUMS-induced decrease in expression of synaptic proteins in the hippocampus [6]	CUMS-induced decrease in expression of c-Fos in the hippocampus (c-Fos [7])	fatality rate (CUMS mice [8])	CUMS-induced decrease in expression of c-Fos in mPFC (c-Fos [9])	sexual dysfunction [10]	weight gain [10]	action at 5-HT1A receptor (5-HT1A receptor)
CNCCC(Oc1ccc(C(F)(F)F)cc1)c1ccccc1 (stereo not drawn) [fluoxetine, reference compound]	little effect	remarkably alleviated	little effect	remarkably alleviated	remarkably alleviated	effectively alleviate	effectively alleviate	zero fatality rate	reversed			
N#Cc1ccc2[nH]cc(CCCCN3CCN(c4ccc5oc(C(N)=O)cc5c4)CC3)c2c1 [vilazodone]										not associated with sexual dysfunction	reduce weight gain	partial agonist

From publication PMC11678425, “(-)-Syringaresinol Exerts an Antidepressant-like Activity in Mice by Noncompetitive Inhibition of the Serotonin Transporter” (Pharmaceuticals, 2024)
